Experimental data: ChEMBL document CHEMBL3046003, “Synthesis and antifungal activities of novel 5-amino-6-arylamino-1H-pyrazolo[3,4-d]pyrimidin-4(5H)-one derivatives” (2008)

Assays:
Assay type in all cases: functional
Conditions in all cases: read-out: GI
[1] = test system: Botrytis cinerea; test: Antifungal activity against Botryotinia fuckeliana assessed as growth inhibition at 50 mg/L
[2] = test system: Sclerotinia sclerotiorum; test: Antifungal activity against Sclerotinia sclerotiorum assessed as growth inhibition at 50 mg/L
[3] = test system: Fusarium graminearum; test: Antifungal activity against Fusarium graminearum assessed as growth inhibition at 50 mg/L
[4] = test system: Pyricularia oryzae; test: Antifungal activity against Magnaporthe oryzae assessed as growth inhibition at 50 mg/L
[5] = test system: Sclerotinia sclerotiorum; test: Antifungal activity against Sclerotinia sclerotiorum assessed as growth inhibition at 10 mg/L
[6] = test system: Botrytis cinerea; test: Antifungal activity against Botryotinia fuckeliana assessed as growth inhibition at 10 mg/L

Compound	inhibition of growth at 50 µg/mL [1] [%]	inhibition of growth at 50 µg/mL [2] [%]	inhibition of growth at 50 µg/mL [3] [%]	inhibition of growth at 50 µg/mL [4] [%]	inhibition of growth at 10 µg/mL [5] [%]	inhibition of growth at 10 µg/mL [6] [%]
CSc1nn(-c2ccccc2)c2nc3n(-c4cccc(Cl)c4)cnn3c(=O)c12	99	100	74	57	82	71
CSc1nn(-c2ccccc2)c2nc3n(-c4cccc(C)c4)cnn3c(=O)c12	97	98	50	70	73	74
CSc1nn(-c2ccccc2)c2nc(Nc3ccc(F)cc3)n(N)c(=O)c12	45	94	20	43	72	9
CSc1nn(-c2ccccc2)c2nc(Nc3ccccc3F)n(N)c(=O)c12	93	97	51	62	73	69
CSc1nn(-c2ccccc2)c2nc(Nc3cccc(F)c3)n(N)c(=O)c12	87	96	43	43	75	56
Nn1c(Nc2ccc(F)cc2)nc2c(c(SCc3ccccc3)nn2-c2ccccc2)c1=O	55	83	34	29	52	12
Nn1c(Nc2ccccc2F)nc2c(c(SCc3ccccc3)nn2-c2ccccc2)c1=O	64	71	40	14	33	18
Nn1c(Nc2cccc(F)c2)nc2c(c(SCc3ccccc3)nn2-c2ccccc2)c1=O	69	82	46	14	40	20
CSc1nn(-c2ccccc2)c2nc(Nc3ccccc3)n(N)c(=O)c12	13	84	14	36	51	3
Nn1c(Nc2ccccc2)nc2c(c(SCc3ccccc3)nn2-c2ccccc2)c1=O	60	72	29	50	31	12
